Patent US10538555B2, “Macrocyclic inhibitors of the PD-1/PD-L1 and CD80(B7-1)/PD-L1 protein/protein interactions” (BRISTOL-MYERS SQUIBB COMPANY, priority 2014, dated 2020)
Where two headings read alike, the source gives them in different places. Where a SMILES comes first, the peptide text is derived from it. Bridges are numbered along the chain shown (N, C = ends). [ ]: non-standard residue; d: D form. ξ: configuration not given here. Phe(3,4,5-F3) = N[C@@H](Cc1cc(F)c(F)c(F)c1)C(=O)O; Trp(5-Cl) = N[C@@H](Cc1c[nH]c2ccc(Cl)cc12)C(=O)O; Trp(7-aza) = N[C@@H](Cc1c[nH]c2ncccc12)C(=O)O; ξTrp(7-aza) = NC(Cc1c[nH]c2ncccc12)C(=O)O; Pro(4R-NH2) = N[C@H]1CN[C@H](C(=O)O)C1; 1Nal = N[C@@H](Cc1cccc2ccccc12)C(=O)O; 2Nal = N[C@@H](Cc1ccc2ccccc2c1)C(=O)O; d(cisHyp) = O=C(O)[C@H]1C[C@@H](O)CN1; Hyp = O=C(O)[C@@H]1C[C@@H](O)CN1; NMeF = CN[C@@H](Cc1ccccc1)C(=O)O; hPhe = N[C@@H](CCc1ccccc1)C(=O)O; 4Pal = N[C@@H](Cc1ccncc1)C(=O)O; Cha = N[C@@H](CC1CCCCC1)C(=O)O; NMeNle = CCCC[C@H](NC)C(=O)O; dPip = O=C(O)[C@H]1CCCCN1; Orn = NCCC[C@H](N)C(=O)O; Sar = CNCC(=O)O

Target: T1, Human PD-L1/PD-1 (Homo sapiens, UniProt Q9NZQ7)
T1 construct: TVMV protease cleavage site (C); made in house; host or cells: HEK293T cells
T1 sequence (Q9NZQ7 with tags, fused parts or gaps): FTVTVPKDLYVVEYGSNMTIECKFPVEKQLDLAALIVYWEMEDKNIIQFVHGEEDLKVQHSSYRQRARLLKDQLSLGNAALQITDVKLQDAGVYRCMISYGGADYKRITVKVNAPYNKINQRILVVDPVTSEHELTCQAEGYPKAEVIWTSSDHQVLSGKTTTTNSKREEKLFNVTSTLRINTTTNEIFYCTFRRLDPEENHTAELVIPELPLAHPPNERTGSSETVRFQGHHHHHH
Test: HTRF Human PD-L1/PD-1 binding assay (PD-1-Ig/PD-L1-His)
Settings: PD-L1-His 10 nM, PD-1-Ig 20 nM
Summary of the method: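 Truncated Fc-fused human PD-1 (aa 25-167) at 20 nM and His-tagged PD-L1 (aa 18-239) at 10 nM final are used, with peptides preincubated 15 min with PD-L1. Detection uses europium-cryptate anti-Ig and APC anti-His antibodies; 665/620 nm ratio.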

[1] = class symbol, read-out: HTRF Human PD-L1/PD-1 Binding Assay IC50 Range
[2] = read-out: HTRF Human PD-L1/PD-1 Binding Assay IC50

SMILES	IC50 [1]	IC50 [2]
CCCC[C@H]1C(=O)N(C)CC(=O)N[C@@H](CC(=O)O)C(=O)N[C@@H]([C@@H](C)O)C(=O)N(C)[C@@H](Cc2ccccc2)C(=O)N[C@@H](Cc2ccc(O)cc2)C(=O)N(C)CC(=O)N[C@@H](Cc2c[nH]c3ccccc23)C(=O)N[C@@H](Cc2ccc(O)cc2)C(=O)N[C@@H](CC(C)C)C(=O)N[C@H](C(=O)NCC(N)=O)CSCC(=O)N[C@@H](Cc2ccccc2)C(=O)N(C)[C@@H](Cc2ccccc2)C(=O)N1C [Example 3225] ({CH2CO}-F[NMeF][NMeNle][Sar]DT[NMeF]Y[Sar]WYLCG-NH2; thioether N-13)	1 to 9.9 nM	
CCCC[C@H]1C(=O)N(C)CC(=O)N[C@@H](CC(=O)O)C(=O)N[C@@H](CCc2ccccc2)C(=O)N(C)[C@@H](Cc2ccccc2)C(=O)N[C@@H](Cc2ccc(O)cc2)C(=O)N(C)CC(=O)N[C@@H](Cc2c[nH]c3ccccc23)C(=O)N[C@@H](Cc2ccc(O)cc2)C(=O)N[C@@H](CC(C)C)C(=O)N[C@H](C(=O)NCC(N)=O)CSCC(=O)N[C@@H](Cc2ccccc2)C(=O)N(C)[C@@H](Cc2ccccc2)C(=O)N1C [Example 3226] ({CH2CO}-F[NMeF][NMeNle][Sar]D[hPhe][NMeF]Y[Sar]WYLCG-NH2; thioether N-13)		1860 nM
CCCC[C@H]1C(=O)N2C[C@H](O)C[C@@H]2C(=O)N2C[C@H](N)C[C@H]2C(=O)N[C@@H](C(C)C)C(=O)N(C)[C@@H](Cc2ccccc2)C(=O)N[C@@H](CCC(=O)O)C(=O)N2CCCC[C@@H]2C(=O)N[C@@H](Cc2c[nH]c3ccccc23)C(=O)N[C@@H](Cc2ccc(O)cc2)C(=O)N[C@@H](CC(C)C)C(=O)N[C@H](C(=O)NCC(N)=O)CSCC(=O)N[C@@H](Cc2cc(F)c(F)c(F)c2)C(=O)N(C)[C@@H](Cc2ccccc2)C(=O)N1C [Example 3227] ({CH2CO}-[Phe(3,4,5-F3)][NMeF][NMeNle][d(cisHyp)][Pro(4R-NH2)]V[NMeF]E[dPip]WYLCG-NH2; thioether N-13)	1 to 9.9 nM	
CCCC[C@H]1C(=O)N2C[C@H](O)C[C@@H]2C(=O)N2C[C@H](O)C[C@H]2C(=O)N[C@@H](C(C)C)C(=O)N(C)[C@@H](Cc2ccccc2)C(=O)N[C@@H](CCC(=O)O)C(=O)N2CCCC[C@@H]2C(=O)N[C@@H](Cc2c[nH]c3ccccc23)C(=O)N[C@@H](Cc2ccc(O)cc2)C(=O)N[C@@H](CCCN)C(=O)N[C@H](C(=O)NCC(N)=O)CSCC(=O)N[C@@H](Cc2cc(F)c(F)c(F)c2)C(=O)N(C)[C@@H](Cc2ccccc2)C(=O)N1C [Example 3228] ({CH2CO}-[Phe(3,4,5-F3)][NMeF][NMeNle][d(cisHyp)][Hyp]V[NMeF]E[dPip]WY[Orn]CG-NH2; thioether N-13)	10 to 99.9 nM	
CCCC[C@H]1C(=O)N(C)CC(=O)N[C@@H](CC(=O)O)C(=O)N[C@@H](C(C)C)C(=O)N(C)[C@@H](Cc2ccccc2)C(=O)N[C@@H](Cc2c[nH]c3ccccc23)C(=O)N(C)CC(=O)N[C@@H](Cc2c[nH]c3ccccc23)C(=O)N[C@@H](Cc2ccc(O)cc2)C(=O)N[C@@H](CC(C)C)C(=O)N[C@H](C(=O)NCC(N)=O)CSCC(=O)N[C@@H](Cc2ccccc2)C(=O)N(C)[C@@H](Cc2ccccc2)C(=O)N1C [Example 3231] ({CH2CO}-F[NMeF][NMeNle][Sar]DV[NMeF]W[Sar]WYLCG-NH2; thioether N-13)	1 to 9.9 nM	
CCCC[C@H]1C(=O)N(C)CC(=O)N[C@@H](CC(=O)O)C(=O)N[C@@H](C(C)C)C(=O)N[C@@H](Cc2c[nH]c3ccccc23)C(=O)N[C@@H](Cc2ccc(O)cc2)C(=O)N(C)CC(=O)N[C@@H](Cc2c[nH]c3ccccc23)C(=O)N[C@@H](Cc2ccc(O)cc2)C(=O)N[C@@H](CC(C)C)C(=O)N[C@H](C(=O)NCC(N)=O)CSCC(=O)N[C@@H](Cc2ccccc2)C(=O)N(C)[C@@H](Cc2ccccc2)C(=O)N1C [Example 3232] ({CH2CO}-F[NMeF][NMeNle][Sar]DVWY[Sar]WYLCG-NH2; thioether N-13)	1000 to 10000 nM	
CCCC[C@H]1C(=O)N(C)CC(=O)N[C@@H](CC(=O)O)C(=O)N[C@@H](C(C)C)C(=O)N(C)[C@@H](Cc2ccccc2)C(=O)N[C@@H](Cc2ccc(O)cc2)C(=O)N(C)CC(=O)N[C@@H](Cc2c[nH]c3ccccc23)C(=O)N[C@@H](Cc2ccc(O)cc2)C(=O)N[C@@H](CC(C)C)C(=O)N[C@H](C(=O)NCC(N)=O)CSCC(=O)N[C@@H](Cc2ccc3ccccc3c2)C(=O)N(C)[C@@H](Cc2ccccc2)C(=O)N1C [Example 3233] ({CH2CO}-[2Nal][NMeF][NMeNle][Sar]DV[NMeF]Y[Sar]WYLCG-NH2; thioether N-13)	1000 to 10000 nM	
CCCC[C@H]1C(=O)N(C)CC(=O)N[C@@H](CC(=O)O)C(=O)N[C@@H](C(C)C)C(=O)N[C@@H](Cc2c[nH]c3ccccc23)C(=O)N[C@@H](Cc2c[nH]c3ccccc23)C(=O)N(C)CC(=O)N[C@@H](Cc2c[nH]c3ccccc23)C(=O)N[C@@H](Cc2ccc(O)cc2)C(=O)N[C@@H](CC(C)C)C(=O)N[C@H](C(=O)NCC(N)=O)CSCC(=O)N[C@@H](Cc2ccccc2)C(=O)N(C)[C@@H](Cc2ccccc2)C(=O)N1C [Example 3234] ({CH2CO}-F[NMeF][NMeNle][Sar]DVWW[Sar]WYLCG-NH2; thioether N-13)		10000 nM
CCCC[C@H]1C(=O)N(C)CC(=O)N[C@@H](CC(=O)O)C(=O)N[C@@H](C(C)C)C(=O)N(C)[C@@H](Cc2ccccc2)C(=O)N[C@@H](Cc2ccc(O)cc2)C(=O)N(C)CC(=O)N[C@@H](Cc2c[nH]c3ccccc23)C(=O)N[C@@H](Cc2ccc(O)cc2)C(=O)N[C@@H](CC(C)C)C(=O)N[C@H](C(=O)NCC(N)=O)CSCC(=O)N[C@@H](Cc2cccc3ccccc23)C(=O)N(C)[C@@H](Cc2ccccc2)C(=O)N1C [Example 3235] ({CH2CO}-[1Nal][NMeF][NMeNle][Sar]DV[NMeF]Y[Sar]WYLCG-NH2; thioether N-13)	1000 to 10000 nM	
CCCC[C@H]1C(=O)N(C)CC(=O)N[C@@H](CC(=O)O)C(=O)N[C@@H](C(C)C)C(=O)N(C)[C@@H](Cc2ccccc2)C(=O)N[C@@H](Cc2ccc(O)cc2)C(=O)N(C)CC(=O)N[C@@H](Cc2c[nH]c3ccc(Cl)cc23)C(=O)N[C@@H](Cc2ccc(O)cc2)C(=O)N[C@@H](CC(C)C)C(=O)N[C@H](C(=O)NCC(N)=O)CSCC(=O)N[C@@H](Cc2ccccc2)C(=O)N(C)[C@@H](Cc2ccccc2)C(=O)N1C [Example 3236] ({CH2CO}-F[NMeF][NMeNle][Sar]DV[NMeF]Y[Sar][Trp(5-Cl)]YLCG-NH2; thioether N-13)	10 to 99.9 nM	
CCCC[C@H]1C(=O)N(C)CC(=O)N[C@@H](CC(N)=O)C(=O)N[C@@H](C(C)C)C(=O)N(C)[C@@H](Cc2ccccc2)C(=O)N[C@@H](Cc2ccc(O)cc2)C(=O)N(C)CC(=O)N[C@@H](Cc2c[nH]c3ccccc23)C(=O)N[C@@H](Cc2ccc(O)cc2)C(=O)N[C@@H](CC(C)C)C(=O)N[C@H](C(=O)NCC(N)=O)CSCC(=O)N[C@@H](Cc2ccccc2)C(=O)N(C)[C@@H](Cc2ccccc2)C(=O)N1C [Example 3237] ({CH2CO}-F[NMeF][NMeNle][Sar]NV[NMeF]Y[Sar]WYLCG-NH2; thioether N-13)	10 to 99.9 nM	
CCCC[C@H]1C(=O)N(C)CC(=O)N[C@@H](CC(=O)O)C(=O)N[C@@H](C(C)C)C(=O)N(C)[C@@H](Cc2ccccc2)C(=O)N[C@@H](Cc2ccc(O)cc2)C(=O)N(C)CC(=O)N[C@@H](Cc2c[nH]c3ccccc23)C(=O)N[C@@H](Cc2ccc(O)cc2)C(=O)N[C@@H](CC(C)C)C(=O)N[C@H](C(=O)NCC(N)=O)CSCC(=O)N[C@@H](CC2CCCCC2)C(=O)N(C)[C@@H](Cc2ccccc2)C(=O)N1C [Example 3238] ({CH2CO}-[Cha][NMeF][NMeNle][Sar]DV[NMeF]Y[Sar]WYLCG-NH2; thioether N-13)	100 to 990 nM	
CCCC[C@H]1C(=O)N(C)CC(=O)N[C@@H](CC(=O)O)C(=O)N[C@@H](C(C)C)C(=O)N(C)[C@@H](Cc2ccccc2)C(=O)N[C@@H](Cc2ccc(O)cc2)C(=O)N(C)CC(=O)NC(Cc2c[nH]c3ncccc23)C(=O)N[C@@H](Cc2ccc(O)cc2)C(=O)N[C@@H](CC(C)C)C(=O)N[C@H](C(=O)NCC(N)=O)CSCC(=O)N[C@@H](Cc2ccccc2)C(=O)N(C)[C@@H](Cc2ccccc2)C(=O)N1C (stereo partly shown) [Example 3239] ({CH2CO}-F[NMeF][NMeNle][Sar]DV[NMeF]Y[Sar][ξTrp(7-aza)]YLCG-NH2; thioether N-13)	10 to 99.9 nM	
CCCC[C@H]1C(=O)N(C)CC(=O)N[C@@H](CC(=O)O)C(=O)N[C@@H](C(C)C)C(=O)N(C)[C@@H](Cc2ccccc2)C(=O)N[C@@H](Cc2ccc(O)cc2)C(=O)N(C)CC(=O)NC(Cc2c[nH]c3ncccc23)C(=O)N[C@@H](Cc2ccc(O)cc2)C(=O)N[C@@H](CC(C)C)C(=O)N[C@H](C(=O)NCC(N)=O)CSCC(=O)N[C@@H](CC2CCCCC2)C(=O)N(C)[C@@H](Cc2ccccc2)C(=O)N1C (stereo partly shown) [Example 3240] ({CH2CO}-[Cha][NMeF][NMeNle][Sar]DV[NMeF]Y[Sar][ξTrp(7-aza)]YLCG-NH2; thioether N-13)	100 to 990 nM	
CCCC[C@H]1C(=O)N(C)CC(=O)N[C@@H](CC(N)=O)C(=O)N[C@@H](C(C)C)C(=O)N(C)[C@@H](Cc2ccccc2)C(=O)N[C@@H](Cc2ccc(O)cc2)C(=O)N(C)CC(=O)N[C@@H](Cc2c[nH]c3ncccc23)C(=O)N[C@@H](Cc2ccc(O)cc2)C(=O)N[C@@H](CC(C)C)C(=O)N[C@H](C(=O)NCC(N)=O)CSCC(=O)N[C@@H](Cc2ccccc2)C(=O)N(C)[C@@H](Cc2ccccc2)C(=O)N1C [Example 3241] ({CH2CO}-F[NMeF][NMeNle][Sar]NV[NMeF]Y[Sar][Trp(7-aza)]YLCG-NH2; thioether N-13)	10 to 99.9 nM	
CCCC[C@H]1C(=O)N(C)CC(=O)N[C@@H](CC(=O)O)C(=O)N[C@@H](C(C)C)C(=O)N(C)[C@@H](Cc2ccccc2)C(=O)N[C@@H](Cc2ccc(O)cc2)C(=O)N(C)CC(=O)N[C@@H](Cc2c[nH]c3ccccc23)C(=O)N[C@@H](Cc2ccc(O)cc2)C(=O)N[C@@H](CC(C)C)C(=O)N[C@H](C(=O)NCC(N)=O)CSCC(=O)N[C@@H](Cc2ccncc2)C(=O)N(C)[C@@H](Cc2ccccc2)C(=O)N1C [Example 3242] ({CH2CO}-[4Pal][NMeF][NMeNle][Sar]DV[NMeF]Y[Sar]WYLCG-NH2; thioether N-13)	100 to 990 nM	
